# Assays:
# MCF7 [1] = experiment: Antiproliferative activity against human MCF7 cells assessed as reduction in cell viability incubated for 48 hrs by MTT assay; conditions: MCF7, 48 h
# [2] = Inhibition of NF-kappaB pathway in human MCF7 cells assessed as reduction in TNFalpha level by RT-PCR analysis
# MCF7 [3] = experiment: Anti-clonogenic activity in human MCF7 cells assessed as reduction of colony formation incubated for 2 weeks by crystal violet staining based assay; conditions: MCF7, 336 h
# [4] = target: T1, Protein deacetylase HDAC6 (Homo sapiens, UniProt Q9UBN7); experiment: Inhibition of HDAC6 (unknown origin)
# T1 sequence (Q9UBN7 whole entry): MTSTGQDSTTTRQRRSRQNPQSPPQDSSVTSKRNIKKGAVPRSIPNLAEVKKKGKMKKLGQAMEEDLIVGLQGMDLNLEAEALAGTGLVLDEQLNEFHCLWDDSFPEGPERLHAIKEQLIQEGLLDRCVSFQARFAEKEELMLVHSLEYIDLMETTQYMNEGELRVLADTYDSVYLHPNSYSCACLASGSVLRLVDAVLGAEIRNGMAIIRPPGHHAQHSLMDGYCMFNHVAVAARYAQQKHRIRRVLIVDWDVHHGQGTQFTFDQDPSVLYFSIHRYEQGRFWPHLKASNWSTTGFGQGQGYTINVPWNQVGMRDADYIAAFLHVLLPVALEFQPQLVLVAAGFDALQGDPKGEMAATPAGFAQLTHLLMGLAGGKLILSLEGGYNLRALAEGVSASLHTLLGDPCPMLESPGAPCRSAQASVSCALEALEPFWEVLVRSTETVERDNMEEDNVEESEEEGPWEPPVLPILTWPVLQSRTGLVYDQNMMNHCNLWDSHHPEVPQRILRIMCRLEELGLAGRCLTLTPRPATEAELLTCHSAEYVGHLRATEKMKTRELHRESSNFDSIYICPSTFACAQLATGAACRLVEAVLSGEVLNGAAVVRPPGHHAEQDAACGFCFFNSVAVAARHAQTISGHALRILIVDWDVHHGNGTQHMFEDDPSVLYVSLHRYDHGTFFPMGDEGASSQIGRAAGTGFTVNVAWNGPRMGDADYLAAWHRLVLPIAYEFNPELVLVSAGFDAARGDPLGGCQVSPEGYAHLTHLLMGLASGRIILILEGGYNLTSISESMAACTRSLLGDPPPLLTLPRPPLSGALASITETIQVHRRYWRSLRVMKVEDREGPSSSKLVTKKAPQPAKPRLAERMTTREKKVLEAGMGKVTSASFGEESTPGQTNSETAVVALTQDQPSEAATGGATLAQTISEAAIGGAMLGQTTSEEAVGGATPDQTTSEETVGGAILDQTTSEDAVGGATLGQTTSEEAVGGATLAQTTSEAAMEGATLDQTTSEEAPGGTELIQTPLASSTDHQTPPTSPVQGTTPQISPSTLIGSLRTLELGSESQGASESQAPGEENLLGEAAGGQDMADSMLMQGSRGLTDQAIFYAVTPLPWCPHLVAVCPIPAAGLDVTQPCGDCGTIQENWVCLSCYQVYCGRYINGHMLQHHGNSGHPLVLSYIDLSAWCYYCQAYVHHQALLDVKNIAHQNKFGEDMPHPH
Structure (SMILES),IC50 (MCF7 [1]),IC50 [2],IC50 (MCF7 [3]),IC50 [4]
CCOC(=O)/C=C/C(=O)NCCOc1ccc(C(=O)c2c(-c3ccc(O)cc3)sc3cc(O)ccc23)cc1,500 nM,4000 nM,2000 nM,–
CC/C(=C(\c1ccccc1)c1ccc(OCCN(C)Cc2ccc(NC(=O)CCCCCCC(=O)NO)cc2)cc1)c1ccccc1,–,–,–,2200 nM
